Source: patent US20100093760A1, “METHODS FOR IDENTIFYING COMPOUNDS THAT MODULATE CELL SIGNALING AND METHODS EMPLOYING SUCH COMPOUNDS” (The General Hospital Corporation, priority 2006, published 2010)
“Also recorded” adds a separate entry of the source. Where two headings read alike, the source gives them in different places.

What was measured:
[1] = test system: BMP signaling pathway (activation of SMAD1/5/8 by BMP4); test: Cellular ELISA of BMP4-mediated SMAD1/5/8 activation; format: cell-based
Protocol: In one example, the cell-based assay of the invention is an enzyme linked immunosorbent assay (ELISA) in which activation of SMAD proteins (SMAD2 or SMAD1/5/8) is measured. […] As discussed above, SMAD proteins are phosphorylated by heteromeric complexes of type I and type II BMP or TGF-β serine-threonine kinase receptors when engaged by ligands. The principal effects of these ligands are generally attributable to gene transcription from the activation of specific SMADs. Phosphorylated SMADs can be detected in whole cell extracts using commercially available anti-phospho-protein antibodies with high specificity by Western blotting (Yu et al., J. Biol. Chem. 280:24443-24450, 2005).
In an improved method provided by the invention, phosphorylated SMADs are detected in whole cells with high sensitivity and specificity by immobilizing and rendering the phospho-SMAD antigens accessible to antibody. Traditional fixation with 1% to 8% paraformaldehyde solution followed by permeabilization with methanol, or a solution of dilute detergent such as Triton-X100, yields unacceptable results, with the signal being only 1.2 to 1.3 times the background, if it is detected at all (while Western blot these signal-to-noise ratios would be 10 to 20). […]

[2] = test system: BMP-mediated SMAD1/5/8 phosphorylation; test: Immunoblot of BMP-induced SMAD1/5/8 phosphorylation in PASMCs; format: cell-based, murine; settings: for IC50: Mus musculus, PASMC
Protocol: (§1) Wild-type and BMPR-II-deficient PASMC were isolated as previously described (Yu et al., J. Biol. Chem. 280:24443-24450, 2005), and cultured in RPMI medium (Invitrogen) supplemented with 10% FBS. C2C12 cells (American Type Culture Collection, Manassas, Va.) were cultured in DMEM supplemented with glutamine and 10% FBS. HepG2 cells and Hep3B cells (ATCC) were cultured in Minimal Essential Alpha Medium with L-glutamine (α-MEM, Invitrogen) containing 10% FBS. For studies of SMAD activation in vitro, PASMC were incubated in 0.5% FCS RPMI for 24 hours, followed by preincubation with drug compounds, noggin, or vehicle for 30 minutes, followed the addition of recombinant BMPs 2, 4, 6, or 7, or TGF-β1 or Activin A (R&D Systems, Minneapolis, Minn.) for 30 minutes.
(§2) Cell extracts or tissues were mechanically homogenized in SDS-lysis buffer (62.5 mM Tris-HCl (pH 6.8), 2% SDS, 10% glycerol, 50 mM DTT, 0.01% bromophenol blue); separated by SDS-PAGE; immunoblotted with anti-phospho-SMAD1/5/8, anti-phospho-SMAD2 (Cell Signaling, Beverly, Mass.), or anti-α-tubulin (Upstate/Millipore, Billerica, Mass.) Abs; and visualized using ECL Plus (GE Healthcare, Piscataway, N.J.). Levels of immunoreactive proteins were quantitated by ImageQuant software on a Storm phosphorimager (GE Healthcare).
The statistical significance of compared measurements was measured using the student's two-tailed T-test or one-way ANOVA with Bonferroni correction. Hill plot analysis of Compound C/Dorsomorphin inhibition of SMAD1/5/8 phosphorylation was performed using GraFit software (Erithacus Software, Surrey, England).

[3] = test system: Activin A-mediated activation of SMAD2; test: Activin A-mediated SMAD2 phosphorylation in PASMCs; format: cell-based, murine; settings: Activin A 80 ng/ml
Protocol: as §1, §2

C2C12 cells = test: BMP-induced alkaline phosphatase activity (osteogenic differentiation) in C2C12 cells; format: cell-based
Protocol: C2C12 cells were seeded into 96 well plates at 2000 cells per well in DMEM supplemented with 2% FBS. Wells were treated in quadruplicate with BMP ligands and Compound C/Dorsomorphin or vehicle. Cells were harvested after 5 days in culture with 50 μl Tris buffered saline/1% Triton X-100. Lysates were added to p-nitro-phenylphosphate reagent in 96-well plates (Sigma) for 1 hour, and alkaline phosphatase activity expressed as absorbance at 405 nm. Cell viability and quantity were measured by Cell-titer Glo (Promega) and binding of nuclear dye CyQuant (Invitrogen), respectively, using replicate wells treated identically to those used for alkaline phosphatase measurements.

zebrafish hepcidin mRNA = test: Iron-dextran challenge: hepatic hepcidin mRNA in adult zebrafish; format: in vivo; settings: 23 μg/g co-injected with iron-dextran, 3 hours
[4] = test system: murine hepcidin (HAMP1) mRNA; test: Basal hepatic hepcidin mRNA in mice; format: in vivo; settings: C57BL/6 mice, single tail vein injection 10 mg/kg, 6 hours

c1cc(-c2cnn3cc(-c4ccc(OCCN5CCCCC5)cc4)cnc23)ccn1 [Compound C/Dorsomorphin]
Preference for BMP-mediated SMAD1/5/8 over TGF-β-mediated SMAD2 phosphorylation ([1]; FIG. 4): potently and preferentially inhibited; also recorded: preferentially inhibits | IC50 ([1]; FIG. 4, read-out: IC50, inhibition of activation of the BMP signaling pathway (SMAD1/5/8 by BMP4)): < 200 nM | IC50 ([2]; FIG. 6, read-out: IC50, activation of SMADs 1, 5, and 8 by BMP4): 500 nM | IC50 ([2]; PASMCs, Hill plot, 0.1-50 μM, read-out: functional IC50, BMP4-stimulated SMAD1/5/8 phosphorylation): 470 nM | level of phosphorylated SMAD1/5/8 in cells not treated with BMP ([2]; PASMCs, 4 μM): below basal levels | effect on activation of SMAD1/5/8 by BMPs 2, 4, 6, and 7 ([2]; PASMCs, 4 μM, BMPs 10 ng/ml, 30 minutes): blocking; also recorded: inhibited | effect on BMP4-mediated SMAD1/5/8 phosphorylation ([2]; PASMCs, BMP4 20 ng/ml, 0.2-40 μM pretreatment 30 minutes): inhibited activation of SMADs 1/5/8 dose dependently; also recorded: dose-dependent inhibition | effect on Activin A-mediated activation of SMAD2 [3]: did not inhibit; also recorded: only modestly at concentrations ≧10 μM | inhibition of osteogenic differentiation compared with noggin (C2C12 cells; 4 μM vs noggin 100 ng/ml): more potent than that seen with pretreatment of cells with 100 ng/ml of noggin | effect on BMP4- or BMP6-induced alkaline phosphatase activity (osteogenic differentiation) (C2C12 cells; 4 μM, 5 days): completely inhibits; also recorded: almost completely abolished; also recorded: inhibited | effect on iron-dextran-induced hepatic hepcidin mRNA (zebrafish hepcidin mRNA): inhibited the increase; also recorded: not significantly different from dextran-treated fish | liver hepcidin mRNA relative to controls [4]: one-third
